39 compounds from US12202823B2 (QUIMATRYX, S.L., priority 2019, dated 2025) can be followed below.

hHDAC6, sequence (Q9UBN7 whole entry): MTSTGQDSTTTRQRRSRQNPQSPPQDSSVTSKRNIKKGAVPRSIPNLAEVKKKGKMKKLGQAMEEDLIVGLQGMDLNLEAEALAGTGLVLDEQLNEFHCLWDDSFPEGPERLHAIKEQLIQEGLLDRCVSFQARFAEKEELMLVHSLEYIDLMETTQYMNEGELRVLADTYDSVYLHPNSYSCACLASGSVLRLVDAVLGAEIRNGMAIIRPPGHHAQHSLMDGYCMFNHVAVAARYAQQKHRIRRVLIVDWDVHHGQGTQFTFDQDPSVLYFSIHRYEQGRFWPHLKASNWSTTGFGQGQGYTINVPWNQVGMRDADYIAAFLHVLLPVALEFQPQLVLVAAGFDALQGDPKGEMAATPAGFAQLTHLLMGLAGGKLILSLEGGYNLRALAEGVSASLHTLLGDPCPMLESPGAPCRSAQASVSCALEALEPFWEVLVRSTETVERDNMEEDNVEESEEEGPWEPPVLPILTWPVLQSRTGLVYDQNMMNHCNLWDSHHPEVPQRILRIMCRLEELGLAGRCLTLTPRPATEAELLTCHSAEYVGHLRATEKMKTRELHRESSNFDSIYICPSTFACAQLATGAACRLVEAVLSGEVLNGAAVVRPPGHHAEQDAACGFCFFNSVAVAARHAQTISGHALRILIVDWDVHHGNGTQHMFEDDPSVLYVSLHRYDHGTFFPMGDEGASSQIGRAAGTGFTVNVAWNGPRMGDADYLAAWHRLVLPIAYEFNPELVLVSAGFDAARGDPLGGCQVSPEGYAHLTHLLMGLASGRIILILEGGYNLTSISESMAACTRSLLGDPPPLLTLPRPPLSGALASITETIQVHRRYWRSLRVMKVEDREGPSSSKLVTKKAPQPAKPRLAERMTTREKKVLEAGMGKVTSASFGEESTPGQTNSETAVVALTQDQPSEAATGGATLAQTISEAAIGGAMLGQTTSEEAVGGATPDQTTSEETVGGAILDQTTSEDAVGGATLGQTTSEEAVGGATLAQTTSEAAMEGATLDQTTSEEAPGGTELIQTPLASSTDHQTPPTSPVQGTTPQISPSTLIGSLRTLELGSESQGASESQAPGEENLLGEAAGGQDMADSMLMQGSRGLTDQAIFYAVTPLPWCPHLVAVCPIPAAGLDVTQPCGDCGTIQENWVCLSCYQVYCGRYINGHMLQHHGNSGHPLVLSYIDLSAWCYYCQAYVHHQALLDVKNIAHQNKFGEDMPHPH

This experiment addresses hHDAC6 (Homo sapiens (Human), UniProt Q9UBN7). As to the kind of experiment: HDAC6 inhibition protocol. The settings on record: read-out: IC50 (nM) of enzyme activity HDAC6; hHDAC6 1.20 nM, Acetylated Peptide A 2 μM, 1 hour at RT.
Method: After enzymatic reactions, reaction was stopped by adding 5 μl of 10 μM solution of a known inhibitor. The fluorescent signal of substrate and product was measured by means of microfluidics mobility assay in a EZ Reader II equipment. The percentage of conversion of substrate into product was calculated by the equipment software based on the area of the peaks.
The percentage of conversion data were analyzed using the computer software, Graphpad Prism. In the absence of the compound, the conversion (Ct) in each data set was defined as 100% activity. In the absence of HDAC, the conversion (Cb) in each data set was defined as 0% activity. The percent activity in the presence of each compound was calculated according to the following equation: % inhibition=(Ct−C)/(Ct−Cb), where C=the percentage of conversion in the presence of the compound.
The values of % inhibition versus a series of compound concentrations were then plotted using non-linear regression analysis of Sigmoidal dose-response curve generated with the equation Y=B+(T−B)/1+10((Log EC50−X)×Hill Slope), where Y=percent inhibition, B=minimum percent inhibition, T=maximum percent inhibition, X=logarithm of compound and Hill Slope=slope factor or Hill coefficient. The IC50 value was determined by the concentration causing a half-maximal percent activity.
The buffer assay used in the inhibition hHDAC6 assay is: Hepes 50 mM, KCl 100 mM, Tween 20 0.001%, BSA 0.01%; pH=7.4.
`FC(F)c1nnc(-c2ccc(Cn3ccc4ccccc43)cc2)o1` [Example 1, 2-(4-((1H-indol-1-yl)methyl)phenyl)-5-(difluoromethyl)-1,3,4-oxadiazole]: the IC50 (as a rule, the concentration that inhibits the measured activity by half) stood at 3040 nM. The same measure for `FC(F)c1nnc(-c2ccc(Cn3ccc4ncccc43)cc2)o1` [Example 2, 2-(4-((1H-pyrrolo[3,2-b]pyridin-1-yl)methyl)phenyl)-5-(difluoromethyl)-1,3,4-oxadiazole]: 1040 nM. The same measure for `FC(F)c1nnc(-c2ccc(Cn3ccc4cnccc43)cc2)o1` [Example 3, 2-(4-((1H-pyrrolo[3,2-c]pyridin-1-yl)methyl)phenyl)-5-(difluoromethyl)-1,3,4-oxadiazole]: 4910 nM; for `FC(F)c1nnc(-c2ccc(Cn3ccc4cccnc43)cc2)o1` [Example 4, 2-(4-((1H-pyrrolo[2,3-b]pyridin-1-yl)methyl)phenyl)-5-(difluoromethyl)-1,3,4-oxadiazole]: 1760 nM. For `O=C(c1cn(Cc2ccc(-c3nnc(C(F)F)o3)cc2)c2ccccc12)C(F)F` [Example 5, 1-(1-(4-(5-(difluoromethyl)-1,3,4-oxadiazol-2-yl)benzyl)-1H-indol-3-yl)-2,2-difluoroethanone], the IC50 worked out at 239 nM. Turning to `FC(F)c1nnc(-c2ccc(Cn3ncc4ccccc43)cc2)o1` [Example 6, 2-(4-((1H-indazol-1-yl)methyl)phenyl)-5-(difluoromethyl)-1,3,4-oxadiazole], the IC50 was 417 nM. For `FC(F)c1nnc(-c2ccc(Cn3cnc4ccccc43)cc2)o1` [Example 8, 2-(4-((1H-benzo[d]imidazol-1-yl)methyl)phenyl)-5-(difluoromethyl)-1,3,4-oxadiazole], the IC50 is 387 nM. Regarding `O=C(c1nc2cc(Cl)c(Cl)cc2n1Cc1ccc(-c2nnc(C(F)F)o2)cc1)C(F)F` [Example 9, 1-(5,6-dichloro-1-(4-(5-(difluoromethyl)-1,3,4-oxadiazol-2-yl)benzyl)-1H-benzo[d]imidazol-2-yl)-2,2-difluoroethanone], the IC50 stood at 236 nM. The value for `FC(F)c1nnc(-c2ccc(Cn3cnc4cc(Cl)c(Cl)cc43)cc2)o1` [Example 10, 2-(4-((5,6-dichloro-1H-benzo[d]imidazol-1-yl)methyl)phenyl)-5-(difluoromethyl)-1,3,4-oxadiazole] was 60.2 nM. The same measure for `Cc1cccc2nnn(Cc3ccc(-c4nnc(C(F)F)o4)cc3)c12` [Example 12]: 190 nM; for `FC(F)c1nnc(-c2ccc(Cn3nnc4ccc(Cl)cc43)cc2)o1` [Example 13, 2-(4-((6-chloro-1H-benzo[d][1,2,3]triazol-1-yl)methyl)phenyl)-5-(difluoromethyl)-1,3,4-oxadiazole]: 129 nM; for `CC1(C)C(=O)N(Cc2ccc(-c3nnc(C(F)F)o3)cc2)c2ccccc21` [Example 15, 1-(4-(5-(difluoromethyl)-1,3,4-oxadiazol-2-yl)benzyl)-3,3-dimethylindolin-2-one]: 214 nM.

Regarding `O=C1c2ccccc2C(=O)N1Cc1ccc(-c2nnc(C(F)F)o2)cc1` [Example 16, 2-(4-(5-(difluoromethyl)-1,3,4-oxadiazol-2-yl)benzyl)isoindoline-1,3-dione], the IC50 was 258 nM. The value for `FC(F)c1nnc(-c2ccc(Cn3nnnc3-c3ccccc3)cc2)o1` [Example 17, 2-(difluoromethyl)-5-(4-((5-phenyl-1H-tetrazol-1-yl)methyl)phenyl)-1,3,4-oxadiazole] was 920 nM; that for `O=c1n(-c2ccccc2)cnn1Cc1ccc(-c2nnc(C(F)F)o2)cc1` [Example 18, 1-(4-(5-(difluoromethyl)-1,3,4-oxadiazol-2-yl)benzyl)-4-phenyl-1H-1,2,4-triazol-5(4H)-one] was 1160 nM. The value for `O=C1N(Cc2ccc(-c3nnc(C(F)F)o3)cc2)c2ccccc2C12CCOCC2` [Example 19] was 229 nM; that for `CC(c1ccc(-c2nnc(C(F)F)o2)cc1)n1cnc2ccccc21` (stereo not drawn) [Example 20, 2-(4-(1-(1H-benzo[d]imidazol-1-yl)ethyl)phenyl)-5-(difluoromethyl)-1,3,4-oxadiazole] was 589 nM; that for `FC(F)c1nnc(-c2ccc(Cn3nnc4ccccc43)nc2)o1` [Example 21, 2-(6-((1H-benzo[d][1,2,3]triazol-1-yl)methyl)pyridin-3-yl)-5-(difluoromethyl)-1,3,4-oxadiazole] was 103 nM. Regarding `FC(F)c1nnc(-c2ccc(Cn3nnc4cccnc43)nc2)o1` [Example 23, 2-(6-((3H-[1,2,3]triazolo[4,5-b]pyridin-3-yl)methyl)pyridin-3-yl)-5-(difluoromethyl)-1,3,4-oxadiazole], the IC50 was 190 nM. As for `FC(F)c1nnc(-c2ccc(Cn3cnc(-c4ccccc4)c3)nc2)o1` [Example 26, 2-(difluoromethyl)-5-(6-((4-phenyl-1H-imidazol-1-yl)methyl)pyridin-3-yl)-1,3,4-oxadiazole], the IC50 was found to be 48.3 nM. The same measure for `COC(=O)c1cn(Cc2ccc(-c3nnc(C(F)F)o3)cc2)nn1` [Example 28, methyl 1-(4-(5-(difluoromethyl)-1,3,4-oxadiazol-2-yl)benzyl)-1H-1,2,3-triazole-4-carboxylate]: 2800 nM; for `FC(F)c1nnc(-c2ccc(Cn3cc(-c4ccc(Cl)cc4)nn3)cc2)o1` [Example 29, 2-(4-((4-(4-chlorophenyl)-1H-1,2,3-triazol-1-yl)methyl)phenyl)-5-(difluoromethyl)-1,3,4-oxadiazole]: 95.6 nM; for `FC(F)c1nnc(-c2ccc(Cn3cc(-c4ccc(C(F)(F)F)cc4)nn3)cc2)o1` [Example 30, 2-(difluoromethyl)-5-(4-((4-(4-(trifluoromethyl)phenyl)-1H-1,2,3-triazol-1-yl)methyl)phenyl)-1,3,4-oxadiazole]: 238 nM. The value for `CC(C)(C)c1cn(Cc2ccc(-c3nnc(C(F)F)o3)cc2)nn1` [Example 31, 2-(4-((4-(tert-butyl)-1H-1,2,3-triazol-1-yl)methyl)phenyl)-5-(difluoromethyl)-1,3,4-oxadiazole] was 273 nM; that for `FC(F)c1nnc(-c2ccc(Cn3cc(C4CCCCC4)nn3)cc2)o1` [Example 32, 2-(4-((4-cyclohexyl-1H-1,2,3-triazol-1-yl)methyl)phenyl)-5-(difluoromethyl)-1,3,4-oxadiazole] was 475 nM. The value for `FC(F)c1nnc(-c2ccc(Cn3cc(-c4ccncc4)nn3)cc2)o1` [Example 33, 2-(difluoromethyl)-5-(4-((4-(pyridin-4-yl)-1H-1,2,3-triazol-1-yl)methyl)phenyl)-1,3,4-oxadiazole] was 188 nM; that for `FC(F)c1nnc(-c2ccc(Cn3cc(-c4cccnc4)nn3)cc2)o1` [Example 34, 2-(difluoromethyl)-5-(4-((4-(pyridin-3-yl)-1H-1,2,3-triazol-1-yl)methyl)phenyl)-1,3,4-oxadiazole] was 202 nM; that for `FC(F)c1nnc(-c2ccc(Cn3cc(-c4ccsc4)nn3)cc2)o1` [Example 35, 2-(difluoromethyl)-5-(4-((4-(thiophen-3-yl)-1H-1,2,3-triazol-1-yl)methyl)phenyl)-1,3,4-oxadiazole] was 131 nM. As to `FC(F)c1nnc(-c2ccc(Cn3cc(-c4cccs4)nn3)cc2)o1` [Example 36, 2-(difluoromethyl)-5-(4-((4-(thiophen-2-yl)-1H-1,2,3-triazol-1-yl)methyl)phenyl)-1,3,4-oxadiazole], the IC50 amounted to 105 nM. Regarding `CC(c1ccc(-c2nnc(C(F)F)o2)cc1)n1cc(-c2ccccc2)nn1` (stereo not drawn) [Example 37, 2-(difluoromethyl)-5-(4-(1-(4-phenyl-1H-1,2,3-triazol-1-yl)ethyl)phenyl)-1,3,4-oxadiazole], the IC50 turned out to be 149 nM. The same measure for `FC(F)c1nnc(-c2ccc(Cn3nnc(-c4ccccc4)c3-c3ccccc3)cc2)o1` [Example 38, 2-(difluoromethyl)-5-(4-((4,5-diphenyl-1H-1,2,3-triazol-1-yl)methyl)phenyl)-1,3,4-oxadiazole]: 266 nM; for `Cc1c(-c2ccccc2)nnn1Cc1ccc(-c2nnc(C(F)F)o2)cc1` [Example 39, 2-(difluoromethyl)-5-(4-((5-methyl-4-phenyl-1H-1,2,3-triazol-1-yl)methyl)phenyl)-1,3,4-oxadiazole]: 366 nM; for `Cc1nnn(Cc2ccc(-c3nnc(C(F)F)o3)cc2)c1-c1ccccc1` [Example 40, 2-(difluoromethyl)-5-(4-((4-methyl-5-phenyl-1H-1,2,3-triazol-1-yl)methyl)phenyl)-1,3,4-oxadiazole]: 686 nM. For `FC(F)c1nnc(-c2ccc(Cn3cc(-c4ccccc4)nn3)nc2)o1` [Example 41, 2-(difluoromethyl)-5-(6-((4-phenyl-1H-1,2,3-triazol-1-yl)methyl)pyridin-3-yl)-1,3,4-oxadiazole], the IC50 came to 40.9 nM.

As for `FC(F)c1nnc(-c2ccc(Cn3cc(-c4ccccc4)nn3)cn2)o1` [Example 42, 2-(difluoromethyl)-5-(5-((4-phenyl-1H-1,2,3-triazol-1-yl)methyl)pyridin-2-yl)-1,3,4-oxadiazole], the IC50 came to 1990 nM. The value for `FC(F)c1nnc(-c2ccc(Cn3cc(-c4ccc(Cl)cc4)nn3)nc2)o1` [Example 43, 2-(6-((4-(4-chlorophenyl)-1H-1,2,3-triazol-1-yl)methyl)pyridin-3-yl)-5-(difluoromethyl)-1,3,4-oxadiazole] was 43.1 nM; that for `FC(F)c1nnc(-c2ccc(Cn3cc(-c4ccccc4Cl)nn3)nc2)o1` [Example 44, 2-(6-((4-(2-chlorophenyl)-1H-1,2,3-triazol-1-yl)methyl)pyridin-3-yl)-5-(difluoromethyl)-1,3,4-oxadiazole] was 37.1 nM; that for `FC(F)c1nnc(-c2ccc(Cn3cc(-c4cccc(Cl)c4)nn3)nc2)o1` [Example 45, 2-(6-((4-(3-chlorophenyl)-1H-1,2,3-triazol-1-yl)methyl)pyridin-3-yl)-5-(difluoromethyl)-1,3,4-oxadiazole] was 33.5 nM. The same measure for `FC(F)c1nnc(-c2ccc(Cn3cc(-c4ccc(Cl)c(Cl)c4)nn3)nc2)o1` [Example 46, 2-(6-((4-(3,4-dichlorophenyl)-1H-1,2,3-triazol-1-yl)methyl)pyridin-3-yl)-5-(difluoromethyl)-1,3,4-oxadiazole]: 37.9 nM.
